Experimental findings from US20230010299A1, “HETEROCYCLIC TRPML1 AGONISTS” (LIBRA THERAPEUTICS, INC., priority 2019, published 2023) are described below.

This assay deals with T1, TRPML1 (Homo sapiens, UniProt Q9GZU1).
T1 construct: expressed in transfected cells
In words: Cellular TRPML1 assay (FLIPR TETRA, GCaMP6f calcium read-out). Particulars: HEK T-REx/GCaMP6f/TRPML1 cells; Ca2+ response over 300 s, normalized to ML-SA1 50 μM; Ca2+ free or Optimem condition not given; read-out: Ec50 (Activity of TRPML1 agonists). The assay is classed as cell-based. How it is done: Buffers and reagents • PBS (D-PBS without calcium and magnesium; EuroClone) • Trypsin (Trypsin 0.05%, EDTA 0.02% in PBS; EuroClone) • DMSO (Sigma) • Ca^2+ free Tyrode's buffer: in-house solution (130 mM NaCl, 5 mM KCl, 1 mM MgCl2, 5 mM NaHCO3, 20 mM HEPES in water at pH 7.4; sterile filtered). • Opti-MEM (Gibco) • Agonist: ML-SA1 (Sigma); stock: 60 mM in DMSO, stored at −20° C. • Blocker: ML-SI3 (in house synthesis); stock: 20 mM in DMSO, stored at −20° C.
The final clone for the TRPML1 assay is HEK T-REx/GCaMP6f/TRPML1.
GCaMP6f is a genetically encoded calcium indicator that is stably expressed in this cell line and used as a fluorescent read-out.
Experiments are performed in 384 MTP format. Cells are seeded at 15000 cells/well either in 25 μl/well of growth medium or in 20 μl/well of Optimem+0.5% FBS without selection antibiotics. Twenty-four hours later, cells are assayed for the response to various compounds using the Ca^2+ sensitive GCaMP6f protein stably expressed in the cells as readout.
The experiment is performed in a 384-well format according to the following procedures for either Ca^2+ free or Optimem conditions: • Ca^2+ free condition (in absence of extracellular Ca^2+): • 24 h after seeding, pre-incubate the cells at room temperature for about 10′. • Then remove the culture medium and replace it with 20 μL of Ca^2+ free Tyrode's buffer. • Start the experiment at the FLIPR^TETRA by injecting 10 μL/w of 3× concentrated test compounds and controls in Ca^2+ free Tyrode's buffer. Monitor the kinetic response over a period of 300 seconds. • Final DMSO concentration: 0.5% • Optimem condition (in presence of extracellular Ca^2+): • 24 h after seeding, pre-incubate the cells at room temperature for about 10′. • Start the experiment at the FLIPR^TETRA by injecting 10 μL/w of 3× concentrated test compounds and controls in Ca^2+ free Tyrode's buffer. Monitor the kinetic response over a period of 300 seconds. • Final DMSO concentration: 0.5%
Data from FLIPR^TETRA measurements are analyzed with the Genedata Screener® software.
Stimulator controls (Col 2): injection of ML-SA1 EC100 (50 μM) in alternated wells positions
Neutral controls (Col 2): injection of 0 mM Ca^2+ free Tyrode's buffer in alternated wells positions.
Test wells (Col 3-22): test compounds dose response curve from either 100 μM with 1:2 dilution steps or from 50 μM with 1:3.16 dilution steps.

The EC50 is the concentration giving half of the maximal effect.

T1 sequence (Q9GZU1 whole entry): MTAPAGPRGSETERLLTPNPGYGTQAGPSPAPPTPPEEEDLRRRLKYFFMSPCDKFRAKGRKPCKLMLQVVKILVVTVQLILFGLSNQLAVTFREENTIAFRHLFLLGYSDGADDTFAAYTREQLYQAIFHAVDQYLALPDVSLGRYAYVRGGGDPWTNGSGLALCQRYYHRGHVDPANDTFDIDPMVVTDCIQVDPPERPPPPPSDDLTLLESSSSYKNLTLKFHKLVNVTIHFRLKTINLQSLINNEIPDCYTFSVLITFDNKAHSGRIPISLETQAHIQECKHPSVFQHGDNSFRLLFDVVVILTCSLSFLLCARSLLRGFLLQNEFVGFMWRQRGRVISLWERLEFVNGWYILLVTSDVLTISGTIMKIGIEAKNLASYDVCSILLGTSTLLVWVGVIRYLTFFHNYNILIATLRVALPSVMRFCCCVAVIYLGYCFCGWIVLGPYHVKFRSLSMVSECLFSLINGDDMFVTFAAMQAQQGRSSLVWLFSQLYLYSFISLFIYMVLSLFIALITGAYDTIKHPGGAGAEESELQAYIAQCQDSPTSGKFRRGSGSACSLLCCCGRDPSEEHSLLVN

Regarding `CCc1ccc(S(=O)(=O)Nc2ccccc2N2CC3CCC2C3)s1` (stereo not shown) [Example 17, N-(2-{2-azabicyclo[2.2.1]heptan-2-yl}phenyl)-5-ethylthiophene-2-sulfonamide], the EC50 was 18.2 µM.

Turning to `CN(C)S(=O)(=O)c1ccc(S(=O)(=O)Nc2ccccc2N2CCN(C(=O)Cc3cccs3)CC2)cc1` [Example 81, N1,N1-dimethyl-N4-(2-{4-[2-(thiophen-2-yl)acetyl]piperazin-1-yl}phenyl)benzene-1,4-disulfonamide], the EC50 came out at 11.1 µM.

Regarding `Cc1cc(S(=O)(=O)Nc2ccccc2N2CCC(Oc3ccccn3)CC2)c(C)s1` [Example 97, 2,5-dimethyl-N-(2-(4-(pyridin-2-yloxy)piperidin-1-yl)phenyl)thiophene-3-sulfonamide], the EC50 was found to be 2.8 µM.

In the case of `CN(C)S(=O)(=O)c1ccc(S(=O)(=O)Nc2ccccc2N2CCC(Oc3ncccn3)CC2)cc1` [Example 89], the EC50 stood at 3.2 µM.

Regarding `CC(C)Oc1ccc(S(=O)(=O)Nc2ccccc2N2CCC(C(=O)OC(C)(C)C)CC2)cc1` [Example 31, tert-butyl 1-(2-((4-isopropoxyphenyl)sulfonamido)phenyl)piperidine-4-carboxylate], the EC50 amounted to 6 µM.

Turning to `CCCN(C)C(=O)C1CCN(c2ccccc2NS(=O)(=O)c2ccc(S(=O)(=O)N(C)C)cc2)CC1` [Example 14, 1-(2-((4-(N,N-dimethylsulfamoyl)phenyl)sulfonamido)phenyl)-N-methyl-N-propylpiperidine-4-carboxamide], the EC50 is 19.7 µM.

In the case of `CN(C)S(=O)(=O)c1ccc(S(=O)(=O)Nc2ccccc2N2CCc3ccccc32)cc1` [Example 8, N4-[2-(2,3-dihydro-1H-indol-1-yl)phenyl]-N1,N1-dimethylbenzene-1,4-disulfonamide], the EC50 turned out to be 64 µM.

`CCCNC(=O)C1CCN(c2ccccc2NS(=O)(=O)c2ccc(S(=O)(=O)N(C)C)cc2)CC1` [Example 87, 1-{2-[4-(dimethylsulfamoyl)benzenesulfonamido]phenyl}-N-propylpiperidine-4-carboxamide]: the EC50 stood at 18.5 µM.

`CN(C)S(=O)(=O)c1ccc(S(=O)(=O)NC2CCCCC2N2CCOCC2)cc1` (stereo not shown) [Example 61, N1,N1-dimethyl-N4-[2-(morpholin-4-yl)cyclohexyl]benzene-1,4-disulfonamide]: the EC50 worked out at 39.5 µM.

For the compound `COC1CCCN(c2ccccc2NS(=O)(=O)c2ccc(S(=O)(=O)N(C)C)cc2)C1` (stereo not shown) [Example 36, N4-[2-(3-methoxypiperidin-1-yl)phenyl]-N1,N1-dimethylbenzene-1,4-disulfonamide], the EC50 was determined as 7.3 µM.

Consider `CC1Cc2cc(S(=O)(=O)Nc3ccccc3N3CCN(C(=O)OC(C)(C)C)CC3)ccc2O1` (single isomer, unassigned) [Example 93, tert-butyl 4-(2-((2-methyl-2,3-dihydrobenzofuran)-5-sulfonamido)phenyl)piperazine-1-carboxylate], for which the EC50 is 4.9 µM.

In the case of `CN1CCc2cc(S(=O)(=O)Nc3ccccc3N3CCN(C(=O)OC(C)(C)C)CC3)ccc21` [Example 72, tert-butyl 4-(2-((l-methylindoline)-5-sulfonamido)phenyl)piperazine-1-carboxylate], the EC50 is 3 µM.

Consider `CN(C)c1ccccc1NS(=O)(=O)c1ccc(S(=O)(=O)N(C)C)cc1` [Example 3, N4-[2-(dimethylamino)phenyl]-N1,N1-dimethylbenzene-1,4-disulfonamide], for which the EC50 is 50.2 µM.

In the case of `CCc1ccc(S(=O)(=O)N(C)c2ccccc2N2CC3CCC2C3)s1` (stereo not shown) [Example 21, N-(2-{2-azabicyclo[2.2.1]heptan-2-yl}phenyl)-5-ethyl-N-methylthiophene-2-sulfonamide], the EC50 worked out at 55.6 µM.

`CCCOC1CCN(c2ccccc2NS(=O)(=O)c2cc(C)oc2C)CC1` [Example 67, 2,5-dimethyl-N-(2-(4-propoxypiperidin-1-yl)phenyl)furan-3-sulfonamide]: the EC50 stood at 37.8 µM.

Consider `CN(C)S(=O)(=O)c1ccc(S(=O)(=O)NC2CCCCC2N2CCC(Oc3ccccc3)CC2)cc1` (single isomer, unassigned) [Example 62, N1,N1-dimethyl-N4-[2-(4-phenoxypiperidin-1-yl)cyclohexyl]benzene-1,4-disulfonamide], for which the EC50 was determined as 15.9 µM.

In the case of `CN(C(=O)c1ccc(S(=O)(=O)N(C)C)cc1)c1ccccc1N1CCN(C(=O)OC(C)(C)C)CC1` [Example 5, tert-butyl 4-(2-(4-(N,N-dimethylsulfamoyl)-N-methylbenzamido)phenyl)piperazine-1-carboxylate], the EC50 was 6 µM.

For `CN(C(=O)c1ccc(S(=O)(=O)N(C)C)cc1)c1ccccc1N1CCCCC1` [Example 15, 4-(dimethylsulfamoyl)-N-methyl-N-[2-(piperidin-1-yl)phenyl]benzamide], the EC50 was 59.1 µM.

Consider `Cc1noc(C)c1S(=O)(=O)Nc1ccccc1N1CCN(C(=O)OC(C)(C)C)CC1` [Example 64, tert-butyl 4-(2-((3,5-dimethylisoxazole)-4-sulfonamido)phenyl)piperazine-1-carboxylate], for which the EC50 was 36.4 µM.

For `CN(C)S(=O)(=O)c1ccc(S(=O)(=O)Nc2ccccc2N2CCC(c3ccccc3)CC2)cc1` [Example 12, N1,N1-dimethyl-N4-[2-(4-phenylpiperidin-1-yl)phenyl]benzene-1,4-disulfonamide], the EC50 was 2.8 µM.

With `CCCOC1CCN(c2ccccc2NS(=O)(=O)c2ccc(C)cc2C)CC1` [Example 66, 2,4-dimethyl-N-(2-(4-propoxypiperidin-1-yl)phenyl)benzenesulfonamide], the EC50 amounted to 22.1 µM.

Take `CC(C)N(C(=O)c1ccc(S(C)(=O)=O)cc1)c1ccccc1N1CCC(Oc2cnccn2)CC1` [Example 103, N-isopropyl-4-(methylsulfonyl)-N-(2-(4-(pyrazin-2-yloxy)piperidin-1-yl)phenyl)benzamide]: the EC50 came to 14.8 µM.

For `CN(C(=O)c1ccc(S(=O)(=O)N(C)C)cc1)c1ccccc1N1CCC(Oc2ccccn2)CC1` [Example 10, 4-(N,N-dimethylsulfamoyl)-N-methyl-N-(2-(4-(pyridin-2-yloxy)piperidin-1-yl)phenyl)benzamide], the EC50 is 8.4 µM.

Regarding `CN(C)S(=O)(=O)c1ccc(S(=O)(=O)Nc2ccccc2N2CCC(O)CC2)cc1` [Example 38, N1-(2-(4-hydroxypiperidin-1-yl)phenyl)-N4,N4-dimethylbenzene-1,4-disulfonamide], the EC50 was determined as 34.5 µM.

As to `CN(C)S(=O)(=O)c1ccc(S(=O)(=O)NC2CCCCC2N2CCC(c3ccccc3)CC2)cc1` (stereo not shown) [Example 55, N1,N1-dimethyl-N4-[2-(4-phenylpiperidin-1-yl)cyclohexyl]benzene-1,4-disulfonamide], the EC50 was found to be 6.1 µM.

For the compound `CC1Cc2cc(S(=O)(=O)Nc3ccccc3N3CCN(C(=O)OC(C)(C)C)CC3)ccc2O1` (single isomer, unassigned) [Example 94, tert-butyl 4-(2-((2-methyl-2,3-dihydrobenzofuran)-5-sulfonamido)phenyl)piperazine-1-carboxylate], the concentration for a half-maximal effect (EC50) worked out at 3.8 µM.

Regarding `CC(C)c1ccc(S(=O)(=O)Nc2ccccc2N2CCC(C(=O)OC(C)(C)C)CC2)cc1` [Example 29, tert-butyl 1-(2-((4-isopropylphenyl)sulfonamido)phenyl)piperidine-4-carboxylate], the EC50 was found to be 2.3 µM.

Turning to `COC(=O)C1CCN(c2ccccc2NS(=O)(=O)c2ccc(S(=O)(=O)N(C)C)cc2)CC1` [Example 105, methyl 1-(2-((4-(N,N-dimethylsulfamoyl)phenyl)sulfonamido)phenyl)piperidine-4-carboxylate], the EC50 amounted to 18 µM.

Take `CC(C)Oc1ccc(S(=O)(=O)Nc2ccccc2N2CCCCC2)cc1` [Example 39, 4-isopropoxy-N-(2-(piperidin-1-yl)phenyl)benzenesulfonamide]: the EC50 is 54.5 µM.

Consider `Cc1cc(C)cc(S(=O)(=O)Nc2ccccc2N2CCN(C(=O)OC(C)(C)C)CC2)c1` [Example 54, tert-butyl 4-(2-((3,5-dimethylphenyl)sulfonamido)phenyl)piperazine-1-carboxylate], for which the EC50 came to 20 µM.

Regarding `CN(C(=O)c1ccc(S(=O)(=O)N(C)C)cc1)c1ccccc1N1CC2CCC1C2` (stereo not shown) [Example 49, N-(2-{2-azabicyclo[2.2.1]heptan-2-yl}phenyl)-4-(dimethylsulfamoyl)-N-methylbenzamide], the EC50 came to 29.3 µM.
